Measurements taken from patent US6653455B1, “Crystallization of doxorubicin hydrochloride” (Mercian Corporation, priority 1998, dated 2003).
Counter-ions that a name gives are not always drawn.

Assay: Hygroscopicity, cup method (weight change)
Assay type: physicochemical
Conditions: weight-increasing rate, 25° C., 50 to 60% RH, 15 minutes; crystals dried at 40° C. under vacuum; hydrochloride
Protocol: Determined by the following cup method. To be specific, about 15 to 20 mg of the sample was put in a cylindrical cup having a diameter of 6 mm and a depth of 6 mm and left standing at a fixed temperature (25° C.) and relative humidity (50 to 60% RH) for 15 minutes to measure a weight change, whereby the hygroscopicity was evaluated.
In the following respective examples, a weight-increasing rate of 0.40% or more is shown by an evaluation criterion that the hygroscopicity is large (−); a weight-increasing rate of 0.20% or more and less than 0.40% is shown by an evaluation criterion that the hygroscopicity is ;intermediate (±); and a weight-increasing rate of less than 0.20% is shown by an evaluation criterion that the hygroscopicity is small: (+).

Row | SMILES | Hygroscopicity
1 | COc1cccc2c1C(=O)c1c(O)c3c(c(O)c1C2=O)C[C@@](O)(C(=O)CO)C[C@@H]3O[C@H]1C[C@H](N)[C@H](O)[C@H](C)O1 [Example 44, doxorubicin hydrochloride] | + (a weight-increasing rate of less than 0.20% is shown by an evaluation criterion that the hygroscopicity is small: (+))
2 | COc1cccc2c1C(=O)c1c(O)c3c(c(O)c1C2=O)C[C@@](O)(C(=O)CO)C[C@@H]3O[C@H]1C[C@H](N)[C@H](O)[C@H](C)O1 [Example 48, doxorubicin hydrochloride] | + (a weight-increasing rate of less than 0.20% is shown by an evaluation criterion that the hygroscopicity is small: (+))
3 | COc1cccc2c1C(=O)c1c(O)c3c(c(O)c1C2=O)C[C@@](O)(C(=O)CO)C[C@@H]3O[C@H]1C[C@H](N)[C@H](O)[C@H](C)O1 [Example 53, doxorubicin hydrochloride] | + (a weight-increasing rate of less than 0.20% is shown by an evaluation criterion that the hygroscopicity is small: (+))
4 | COc1cccc2c1C(=O)c1c(O)c3c(c(O)c1C2=O)C[C@@](O)(C(=O)CO)C[C@@H]3O[C@H]1C[C@H](N)[C@H](O)[C@H](C)O1 [Example 22, doxorubicin hydrochloride] | + (a weight-increasing rate of less than 0.20% is shown by an evaluation criterion that the hygroscopicity is small: (+))
5 | COc1cccc2c1C(=O)c1c(O)c3c(c(O)c1C2=O)C[C@@](O)(C(=O)CO)C[C@@H]3O[C@H]1C[C@H](N)[C@H](O)[C@H](C)O1 [Example 25, doxorubicin hydrochloride] | + (a weight-increasing rate of less than 0.20% is shown by an evaluation criterion that the hygroscopicity is small: (+))
6 | COc1cccc2c1C(=O)c1c(O)c3c(c(O)c1C2=O)C[C@@](O)(C(=O)CO)C[C@@H]3O[C@H]1C[C@H](N)[C@H](O)[C@H](C)O1 [Example 35, doxorubicin hydrochloride] | ± (a weight-increasing rate of 0.20% or more and less than 0.40% is shown by an evaluation criterion that the hygroscopicity is ;intermediate (±))
7 | COc1cccc2c1C(=O)c1c(O)c3c(c(O)c1C2=O)C[C@@](O)(C(=O)CO)C[C@@H]3O[C@H]1C[C@H](N)[C@H](O)[C@H](C)O1 [Example 29, doxorubicin hydrochloride] | + (a weight-increasing rate of less than 0.20% is shown by an evaluation criterion that the hygroscopicity is small: (+))
8 | COc1cccc2c1C(=O)c1c(O)c3c(c(O)c1C2=O)C[C@@](O)(C(=O)CO)C[C@@H]3O[C@H]1C[C@H](N)[C@H](O)[C@H](C)O1 [Example 8, doxorubicin hydrochloride] | − (a weight-increasing rate of 0.40% or more is shown by an evaluation criterion that the hygroscopicity is large (−))
9 | COc1cccc2c1C(=O)c1c(O)c3c(c(O)c1C2=O)C[C@@](O)(C(=O)CO)C[C@@H]3O[C@H]1C[C@H](N)[C@H](O)[C@H](C)O1 [Example 17, doxorubicin hydrochloride] | − (a weight-increasing rate of 0.40% or more is shown by an evaluation criterion that the hygroscopicity is large (−))
10 | COc1cccc2c1C(=O)c1c(O)c3c(c(O)c1C2=O)C[C@@](O)(C(=O)CO)C[C@@H]3O[C@H]1C[C@H](N)[C@H](O)[C@H](C)O1 [Example 18, doxorubicin hydrochloride] | − (a weight-increasing rate of 0.40% or more is shown by an evaluation criterion that the hygroscopicity is large (−))
11 | COc1cccc2c1C(=O)c1c(O)c3c(c(O)c1C2=O)C[C@@](O)(C(=O)CO)C[C@@H]3O[C@H]1C[C@H](N)[C@H](O)[C@H](C)O1 [Example 3, doxorubicin hydrochloride] | − (a weight-increasing rate of 0.40% or more is shown by an evaluation criterion that the hygroscopicity is large (−))
12 | COc1cccc2c1C(=O)c1c(O)c3c(c(O)c1C2=O)C[C@@](O)(C(=O)CO)C[C@@H]3O[C@H]1C[C@H](N)[C@H](O)[C@H](C)O1 [Example 54, doxorubicin hydrochloride] | + (a weight-increasing rate of less than 0.20% is shown by an evaluation criterion that the hygroscopicity is small: (+))
13 | COc1cccc2c1C(=O)c1c(O)c3c(c(O)c1C2=O)C[C@@](O)(C(=O)CO)C[C@@H]3O[C@H]1C[C@H](N)[C@H](O)[C@H](C)O1 [Example 26, doxorubicin hydrochloride] | + (a weight-increasing rate of less than 0.20% is shown by an evaluation criterion that the hygroscopicity is small: (+))
14 | COc1cccc2c1C(=O)c1c(O)c3c(c(O)c1C2=O)C[C@@](O)(C(=O)CO)C[C@@H]3O[C@H]1C[C@H](N)[C@H](O)[C@H](C)O1 [Example 37, doxorubicin hydrochloride] | + (a weight-increasing rate of less than 0.20% is shown by an evaluation criterion that the hygroscopicity is small: (+))
15 | COc1cccc2c1C(=O)c1c(O)c3c(c(O)c1C2=O)C[C@@](O)(C(=O)CO)C[C@@H]3O[C@H]1C[C@H](N)[C@H](O)[C@H](C)O1 [Example 31, doxorubicin hydrochloride] | + (a weight-increasing rate of less than 0.20% is shown by an evaluation criterion that the hygroscopicity is small: (+))
16 | COc1cccc2c1C(=O)c1c(O)c3c(c(O)c1C2=O)C[C@@](O)(C(=O)CO)C[C@@H]3O[C@H]1C[C@H](N)[C@H](O)[C@H](C)O1 [Example 39, doxorubicin hydrochloride] | + (a weight-increasing rate of less than 0.20% is shown by an evaluation criterion that the hygroscopicity is small: (+))
17 | COc1cccc2c1C(=O)c1c(O)c3c(c(O)c1C2=O)C[C@@](O)(C(=O)CO)C[C@@H]3O[C@H]1C[C@H](N)[C@H](O)[C@H](C)O1 [Example 41, doxorubicin hydrochloride] | + (a weight-increasing rate of less than 0.20% is shown by an evaluation criterion that the hygroscopicity is small: (+))
18 | COc1cccc2c1C(=O)c1c(O)c3c(c(O)c1C2=O)C[C@@](O)(C(=O)CO)C[C@@H]3O[C@H]1C[C@H](N)[C@H](O)[C@H](C)O1 [Example 36, doxorubicin hydrochloride] | ± (a weight-increasing rate of 0.20% or more and less than 0.40% is shown by an evaluation criterion that the hygroscopicity is ;intermediate (±))
19 | COc1cccc2c1C(=O)c1c(O)c3c(c(O)c1C2=O)C[C@@](O)(C(=O)CO)C[C@@H]3O[C@H]1C[C@H](N)[C@H](O)[C@H](C)O1 [Example 15, doxorubicin hydrochloride] | − (a weight-increasing rate of 0.40% or more is shown by an evaluation criterion that the hygroscopicity is large (−))
20 | COc1cccc2c1C(=O)c1c(O)c3c(c(O)c1C2=O)C[C@@](O)(C(=O)CO)C[C@@H]3O[C@H]1C[C@H](N)[C@H](O)[C@H](C)O1 [Example 1, doxorubicin hydrochloride] | − (a weight-increasing rate of 0.40% or more is shown by an evaluation criterion that the hygroscopicity is large (−))
21 | COc1cccc2c1C(=O)c1c(O)c3c(c(O)c1C2=O)C[C@@](O)(C(=O)CO)C[C@@H]3O[C@H]1C[C@H](N)[C@H](O)[C@H](C)O1 [Example 27, doxorubicin hydrochloride] | ± (a weight-increasing rate of 0.20% or more and less than 0.40% is shown by an evaluation criterion that the hygroscopicity is ;intermediate (±))
22 | COc1cccc2c1C(=O)c1c(O)c3c(c(O)c1C2=O)C[C@@](O)(C(=O)CO)C[C@@H]3O[C@H]1C[C@H](N)[C@H](O)[C@H](C)O1 [Example 43, doxorubicin hydrochloride] | + (a weight-increasing rate of less than 0.20% is shown by an evaluation criterion that the hygroscopicity is small: (+))
23 | COc1cccc2c1C(=O)c1c(O)c3c(c(O)c1C2=O)C[C@@](O)(C(=O)CO)C[C@@H]3O[C@H]1C[C@H](N)[C@H](O)[C@H](C)O1 [Example 52, doxorubicin hydrochloride] | + (a weight-increasing rate of less than 0.20% is shown by an evaluation criterion that the hygroscopicity is small: (+))
24 | COc1cccc2c1C(=O)c1c(O)c3c(c(O)c1C2=O)C[C@@](O)(C(=O)CO)C[C@@H]3O[C@H]1C[C@H](N)[C@H](O)[C@H](C)O1 [Example 50, doxorubicin hydrochloride] | + (a weight-increasing rate of less than 0.20% is shown by an evaluation criterion that the hygroscopicity is small: (+))
25 | COc1cccc2c1C(=O)c1c(O)c3c(c(O)c1C2=O)C[C@@](O)(C(=O)CO)C[C@@H]3O[C@H]1C[C@H](N)[C@H](O)[C@H](C)O1 [Example 9, doxorubicin hydrochloride] | − (a weight-increasing rate of 0.40% or more is shown by an evaluation criterion that the hygroscopicity is large (−))
26 | COc1cccc2c1C(=O)c1c(O)c3c(c(O)c1C2=O)C[C@@](O)(C(=O)CO)C[C@@H]3O[C@H]1C[C@H](N)[C@H](O)[C@H](C)O1 [Example 14, doxorubicin hydrochloride] | ± (a weight-increasing rate of 0.20% or more and less than 0.40% is shown by an evaluation criterion that the hygroscopicity is ;intermediate (±))

Assay: Average particle diameter, microscopic method (Heywood circle-corresponding diameter)
Assay type: physicochemical
Conditions: 10 typical crystals on photograph, hydrochloride
Text: The average particle diameter is shown by a diameter of a circle having the same area as an injected area of the particle, a so-called Heywood diameter (circle-corresponding diameter) according to a microscopic method (injected image). A small amount of the crystals was put on a slide glass, and 1 to 2 drops of a hydrophilic surfactant (sesquioleic acid sorbitan) were fallen thereon to disperse them. It was photographed by means of a polarization microscope (photographing lens: 3.3 magnifications, objective lens: 20 magnifications) equipped with a photographing device. Optional 10 pieces of the typical crystals were selected on the photograph to measure a long diameter and a short diameter thereof An (projected) area of the particle was shown by long diameter×short diameter, and the particle diameter was shown by a diameter of a circle having the same area as that obtained above.

Row | SMILES | Average particle diameter [μm]
27 | COc1cccc2c1C(=O)c1c(O)c3c(c(O)c1C2=O)C[C@@](O)(C(=O)CO)C[C@@H]3O[C@H]1C[C@H](N)[C@H](O)[C@H](C)O1 [Example 44, doxorubicin hydrochloride] | 28
28 | COc1cccc2c1C(=O)c1c(O)c3c(c(O)c1C2=O)C[C@@](O)(C(=O)CO)C[C@@H]3O[C@H]1C[C@H](N)[C@H](O)[C@H](C)O1 [Example 48, doxorubicin hydrochloride] | 89
29 | COc1cccc2c1C(=O)c1c(O)c3c(c(O)c1C2=O)C[C@@](O)(C(=O)CO)C[C@@H]3O[C@H]1C[C@H](N)[C@H](O)[C@H](C)O1 [Example 22, doxorubicin hydrochloride] | 47
30 | COc1cccc2c1C(=O)c1c(O)c3c(c(O)c1C2=O)C[C@@](O)(C(=O)CO)C[C@@H]3O[C@H]1C[C@H](N)[C@H](O)[C@H](C)O1 [Example 35, doxorubicin hydrochloride] | 20
